Results published in US7342011B2, “Rifamycin analogs and uses thereof” (priority 2003, dated 2008).
Converted amounts (≈) assume the structure as drawn.

test system: E. coli; experiment: MIC assay, E. coli; type: cell-based

| Molecule | MIC (μg/mL) E. coli [µg/mL] |
| --- | --- |
| 25-O-deacetyl-5′-[(8aR)octahydropyrrolo[1,2-a]pyrazin-2-yl]benzthiazinorifamycin [Compound 78] | 4 |
| COC1C=COC2(C)Oc3c(C)c(O)c4c(=O)c(c5oc6cc(N7CC8C(C7)C8NC(=O)OCC[Si](C)(C)C)cc(O)c6nc-5c4c3C2=O)NC(=O)C(C)=CC=CC(C)C(O)C(C)C(O)C(C)C(OC(C)=O)C1C [Compound 2, 3′-hydroxy-5′-[6-(2-trimethylsilyl)ethylcarbamyl-(1R,5S)-3-azabicyclo[3.1.0]hex-3-yl]benzoxazinorifamycin] | >8 |
| COC1C=COC2(C)Oc3c(C)c(O)c4c(=O)c(c5oc6cc(N7CC8C(N)C8C7)cc(O)c6nc-5c4c3C2=O)NC(=O)C(C)=CC=CC(C)C(O)C(C)C(O)C(C)C(OC(C)=O)C1C [Compound 4, 3′-hydroxy-5′-[6-amino-(1R,5S)-3-azabicyclo[3.1.0]hex-3-yl]benzoxazinorifamycin] | >8 |
| CO[C@H]1/C=C/O[C@@]2(C)Oc3c(C)c(O)c4c(=O)c(c5oc6cc(N7C[C@@H]8CCCN[C@@H]8C7)cc(O)c6nc-5c4c3C2=O)NC(=O)/C(C)=C\C=C\[C@H](C)[C@H](O)[C@@H](C)[C@@H](O)[C@@H](C)[C@H](OC(C)=O)[C@@H]1C [Compound 5, 3′-hydroxy-5′-[(4aS,7aS)-octahydro-6H-pyrrolo[3,4-b]pyridin-6-yl]benzoxazinorifamycin] | 8 (≈ 8.65 µM) |
| CO[C@H]1/C=C/O[C@@]2(C)Oc3c(C)c(O)c4c(=O)c(c5oc6cc(N7C[C@@H]8CCCN[C@@H]8C7)cc(O)c6nc-5c4c3C2=O)NC(=O)/C(C)=C\C=C\[C@H](C)[C@H](O)[C@@H](C)[C@@H](O)[C@@H](C)[C@H](O)[C@@H]1C [Compound 7, 25-O-deacetyl-3′-hydroxy-5′-[(4aS,7aS)-octahydro-6H-pyrrolo[3,4-b]pyridin-6-yl]benzoxazinorifamycin] | >8 |
| CO[C@H]1/C=C/O[C@@]2(C)Oc3c(C)c(O)c4c(=O)c(c5oc6cc(N7CCC(N8CCOCC8)CC7)cc(O)c6nc-5c4c3C2=O)NC(=O)/C(C)=C\C=C\[C@H](C)[C@H](O)[C@@H](C)[C@@H](O)[C@@H](C)[C@H](OC(C)=O)[C@@H]1C [Compound 9, 3′-hydroxy-5′-(4-morpholinyl-1-piperidinyl)benzoxazinorifamycin] | 8 (≈ 8.26 µM) |
| CO[C@H]1/C=C/O[C@@]2(C)Oc3c(C)c(O)c4c(=O)c(c5oc6cc(N7CC8CCC(C7)N8)cc(O)c6nc-5c4c3C2=O)NC(=O)/C(C)=C\C=C\[C@H](C)[C@H](O)[C@@H](C)[C@@H](O)[C@@H](C)[C@H](OC(C)=O)[C@@H]1C [Compound 10, 3′-hydroxy-5′-(3,8-diazabicyclo[3.2.1]octan-3-yl)benzoxazinorifamycin] | >8 |
| CO[C@H]1/C=C/O[C@@]2(C)Oc3c(C)c(O)c4c(=O)c(c5oc6cc(N7CCC(N8CCOCC8)CC7)cc(O)c6nc-5c4c3C2=O)NC(=O)/C(C)=C\C=C\[C@H](C)[C@H](O)[C@@H](C)[C@@H](O)[C@@H](C)[C@H](O)[C@@H]1C [Compound 11, 25-O-deacetyl-3′-hydroxy-5′-(4-morpholinyl-1-piperidinyl)benzoxazinorifamycin] | 4 (≈ 4.31 µM) |
| CO[C@H]1/C=C/O[C@@]2(C)Oc3c(C)c(O)c4c(=O)c(c5oc6cc(N7C[C@H]8CCCN[C@H]8C7)cc(O)c6nc-5c4c3C2=O)NC(=O)/C(C)=C\C=C\[C@H](C)[C@H](O)[C@@H](C)[C@@H](O)[C@@H](C)[C@H](OC(C)=O)[C@@H]1C [Compound 12, 3′-hydroxy-5′-[(4aR,7aR)-octahydro-6H-pyrrolo[3,4-b]pyridin-6-yl]benzoxazinorifamycin] | 8 (≈ 8.65 µM) |
| CO[C@H]1/C=C/O[C@@]2(C)Oc3c(C)c(O)c4c(=O)c(c5oc6cc(N7CCC(NC(=O)OCC(C)C)CC7)cc(O)c6nc-5c4c3C2=O)NC(=O)/C(C)=C\C=C\[C@H](C)[C@H](O)[C@@H](C)[C@@H](O)[C@@H](C)[C@H](OC(C)=O)[C@@H]1C [Compound 13] | 4 (≈ 4 µM) |
| CO[C@H]1/C=C/O[C@@]2(C)Oc3c(C)c(O)c4c(=O)c(c5oc6cc(N7C[C@H]8CCCN[C@H]8C7)cc(O)c6nc-5c4c3C2=O)NC(=O)/C(C)=C\C=C\[C@H](C)[C@H](O)[C@@H](C)[C@@H](O)[C@@H](C)[C@H](O)[C@@H]1C [Compound 15, 25-O-deacetyl-3′-hydroxy-5′-[(4aR,7aR)-octahydro-6H-pyrrolo[3,4-b]pyridin-6-yl]benzoxazinorifamycin] | >8 |
| CO[C@H]1/C=C/O[C@@]2(C)Oc3c(C)c(O)c4c(=O)c(c5oc6cc(N7CC8CCC(C7)N8)cc(O)c6nc-5c4c3C2=O)NC(=O)/C(C)=C\C=C\[C@H](C)[C@H](O)[C@@H](C)[C@@H](O)[C@@H](C)[C@H](O)[C@@H]1C [Compound 16, 25-O-deacetyl-3′-hydroxy-5′-(3,8-diazabicyclo[3.2.1]octan-3-yl)benzoxazinorifamycin] | 4 (≈ 4.6 µM) |
| CO[C@H]1/C=C/O[C@@]2(C)Oc3c(C)c(O)c4c(=O)c(c5oc6cc(N7CCC(N(C)C)CC7)cc(O)c6nc-5c4c3C2=O)NC(=O)/C(C)=C\C=C\[C@H](C)[C@H](O)[C@@H](C)[C@@H](O)[C@@H](C)[C@H](OC(C)=O)[C@@H]1C [Compound 17, 3′-hydroxy-5′-(4-N,N-dimethylamino-1-piperidinyl)benzoxazinorifamycin] | 8 (≈ 8.63 µM) |
| CO[C@H]1/C=C/O[C@@]2(C)Oc3c(C)c(O)c4c(=O)c(c5oc6cc(N7CCC(N(C)C)CC7)cc(O)c6nc-5c4c3C2=O)NC(=O)/C(C)=C\C=C\[C@H](C)[C@H](O)[C@@H](C)[C@@H](O)[C@@H](C)[C@H](O)[C@@H]1C [Compound 18, 25-O-deacetyl-3′-hydroxy-5′-(4-N,N dimethylamino-1-piperidinyl)benzoxazinorifamycin] | 4 (≈ 4.52 µM) |
| COC1C=COC2(C)Oc3c(C)c(O)c4c(=O)c(c5oc6cc(N7CC8C(N)C8C7)cc(O)c6nc-5c4c3C2=O)NC(=O)C(C)=CC=CC(C)C(O)C(C)C(O)C(C)C(O)C1C [Compound 20, 25-O-deacetyl-3′-hydroxy-5′-[6-amino-(1R,5S)-3-azabicyclo[3.1.0]hex-3-yl]benzoxazinorifamycin] | >8 |
| CCOC(=O)NC1C2CN(c3cc(O)c4nc5c6c7c8c(C)c(O)c6c(=O)c(c-5oc4c3)NC(=O)C(C)=CC=CC(C)C(O)C(C)C(O)C(C)C(OC(C)=O)C(C)C(OC)C=COC(C)(O8)C7=O)CC21 (stereo not shown) [Compound 21] | 4 (≈ 4.13 µM) |
| CO[C@H]1/C=C/O[C@@]2(C)Oc3c(C)c(O)c4c(=O)c(c5oc6cc(N7CCC(NC(=O)OC(C)C)CC7)cc(O)c6nc-5c4c3C2=O)NC(=O)/C(C)=C\C=C\[C@H](C)[C@H](O)[C@@H](C)[C@@H](O)[C@@H](C)[C@H](OC(C)=O)[C@@H]1C [Compound 22] | >8 |
| CO[C@H]1/C=C/O[C@@]2(C)Oc3c(C)c(O)c4c(=O)c(c5oc6cc(N7CCC(NS(=O)(=O)C(F)(F)F)CC7)cc(O)c6nc-5c4c3C2=O)NC(=O)/C(C)=C\C=C\[C@H](C)[C@H](O)[C@@H](C)[C@@H](O)[C@@H](C)[C@H](OC(C)=O)[C@@H]1C [Compound 23] | >8 |
| CCCC(=O)NC1CCN(c2cc(O)c3nc4c5c6c7c(C)c(O)c5c(=O)c(c-4oc3c2)NC(=O)/C(C)=C\C=C\[C@H](C)[C@H](O)[C@@H](C)[C@@H](O)[C@@H](C)[C@H](OC(C)=O)[C@H](C)[C@@H](OC)/C=C/O[C@@](C)(O7)C6=O)CC1 [Compound 24, 3′-hydroxy-5′-[4-butanamide-1-piperidinyl]benzoxazinorifamycin] | >8 |
